Patent US20260240820A1, “METHOD FOR CONTROLLING MEMBRANE POTENTIAL-DEPENDENT ION CHANNEL THROUGH TYPE I TASTE RECEPTORS (T1RS)” (ION CHAT RESEARCH CORPORATE, priority 2022, published 2026)
“Also recorded” adds a separate entry of the source. Where two headings read alike, the source gives them in different places.

Experiments:
VGSC = assay: Patch-clamp recording of VGSC current, cell type not specified or several cell types (summary statements); assay type: cell-based, human
Nav1.5 = assay: Patch-clamp (voltage clamp) recording of VGSC current in HEK cells stably expressing Nav1.5
[1] = system: VGSC of SH-SY5Y cells (Nav1.7, Nav1.2, Nav1.3); assay: Patch-clamp recording of VGSC current in differentiated SH-SY5Y cells; assay type: cell-based, human; conditions: for IC50: read-out: IC50 (VGSC inhibition)
Description: Furthermore, the inventors focused on the relationship between taste receptors, particularly the sweet or umami receptors containing the T1R3 subunit, which are widely expressed in the brain and nervous system, including the hippocampus and cortex. They used human neuroblastoma cells (SH-SY5Y) that functionally express Nav1.2, Nav1.3, and Nav1.7 (as reported in non-patent literature 8), as well as HEK cells stably expressing Nav1.5 (with endogenous expression of T1R1, T1R2, and T1R3). They observed the effects of taste stimuli on sodium channel activation. By reducing the expression of T1R1 and T1R3 genes using silencing vectors, they confirmed that the effects on sodium channel currents induced by taste stimuli act through taste receptor GPCRs.
The SH-SY5Y cell culture medium was prepared by mixing DMEM (Sigma-Aldrich) and F-12 (Sigma-Aldrich) in equal proportions. To induce neuronal-like differentiation, the medium contained 1% FBS (BioWest), 5% 40 mM L-Glutamine (Fuji Film), and 1% MEM non-essential amino acids (Wako Pure Chemical Industries). During differentiation, SH-SY5Y cells were cultured for at least 5 days with the addition of 10 μM/ml retinoic acid (Fuji Film). In this document, “SH-SY5Y cells” refer to the SH-SY5Y cell line differentiated into neuronal-like cells.

[2] = system: voltage-dependent potassium channel current of SH-SY5Y cells; assay: Voltage clamp recording of outward potassium current in SH-SY5Y cells; assay type: cell-based, human; conditions: 2 mM
Description: The inward current represents the transient peak observed immediately after stimulation, while the outward current measures the average value during the last 50 ms of rectangular pulse stimulation.

Kv1.2 = assay: Patch-clamp recording of Kv1.2 potassium current in HEK cells expressing Kv1.2; assay type: cell-based, human
Procedure: The effects of Aβ peptides or umami substances on sustained potassium currents (VGKC) in cardiac myocytes can be studied using HEK cells expressing VGKC (such as Kv1.2, Kv3.2, Kv3.3) as well as SH-SY5Y cells expressing endogenous T1R GPCRs. For instance, as shown in the implementation example in (FIG. 36B), Aβ peptides were applied to VGKC-expressing human cultured cells, and VGKC currents were recorded using ramp-like or rectangular voltage waveforms via the patch-clamp technique. This allowed measurement of the changes (inhibition) in VGKC currents caused by Aβ peptides. Similar inhibition studies on VGKC can be conducted using umami substance L-glutamate sodium (MSG) (FIG. 36A).
As shown in (FIG. 37), Aβ1-42 peptide, unlike Aβ25-35 targeting T1R3, interacts with T1R1 and inhibits VGSC currents (FIGS. 37D, E).

[3] = system: Nav1.5 in T1R3-silenced HEK cells; assay: VGSC current in HEK Nav1.5 cells with silenced T1R3; assay type: cell-based, human
Description: The miRNAs Oligo (Thermofisher) used for silencing were annealed to form double-stranded DNA, which was then linked to the miR RNAi Expression Vector using T4 DNA ligase to create the knockdown vector. Specifically, the procedure followed the miR RNAi Expression Vector Kit manual (BLOCK-i™ Pol II miR RNAi Expression Vector Kit with EmGFP (Catalog number: K493600)).
Since Aβ25-35 peptide produced similar effects (enhancing VGSC activity, lowering the excitability threshold) as glutamine, it was considered that Aβ25-35 peptide might also act on T1R2/T1R3 receptors like glutamine. Therefore, in this implementation example, we used HEK-Nav1.5 cells with silenced T1R3 and compared the effect of Aβ25-35 peptide on VGSC with that in control HEK-Nav1.5 cells.
To strengthen these findings, we conducted similar experiments using HEK Nav1.5 cells in which T1R3 expression was silenced (FIG. 22). We measured VGSC currents in T1R3-silenced HEK Nav1.5 cells, applying stimuli every 8 seconds.

## COc1cc2c(c(OC)c1OC)-c1ccc(OC)c(=O)cc1[C@@H](NC(C)=O)CC2 [Colchicine]
VGSC
  Effects on VGSCs: Enhances VGSC
VGSC; 2.25 μM, at −40 mV
  VGSC current amplitude: nearly doubled

## NCCCC(=O)O [GABA, γ-aminobutyric acid]
Nav1.5; applied after Aβ42/40 (AD-D)
  Effect on VGSC current enhanced by Aβ42/40 (AD-D): no effects similar to β-alanine were observed

## Nc1nc2c(ncn2[C@@H]2O[C@H](COP(=O)(O)O)[C@@H](O)[C@H]2O)c(=O)[nH]1 [GMP, guanosine 5′-monophosphate]
[1]
  Leftward shift in the I-V curve: approximately 10 mV
[1]; 2 mM
  Effect on VGSC current: slight increase in VGSC currents
  Steady-state inactivation curve: No change; also recorded: No changes were observed
VGSC
  Effects on VGSCs: enhances VGSC; also recorded: Enhancement of VGSC
VGSC; 1 mM
  Effect on VGSC: 1 mM GMP, much like L-Gln, primarily enhances VGSC without altering
[2]
  Effect on outward potassium current: peak outward potassium current decreases; also recorded: reduced outward potassium currents

## OC[C@H]1OC(O)[C@H](O)[C@@H](O)[C@@H]1O (stereo partly drawn) [Glucose]
VGSC; <10 mM
  Effects on VGSCs: Enhancement of VGSC
VGSC; >20 mM
  Effects on VGSCs: Inhibition of VGSCs

## NC(=O)CC[C@H](N)C(=O)O [L-Gln, L-glutamine]
[1]; 500 μM
  Effect on VGSC inward current: enhancement of transient downward VGSC current; also recorded: amplification of VGSC inward current
VGSC
  Effects on VGSCs: Enhancement of VGSC; also recorded: Delay in VGSC inactivation
VGSC; 0.5-1 mM, SH-SY5Y (n=8) and HEK-Nav1.5 (n=4)
  Increase in VGSC current: 10-20%
VGSC; concentrations higher than 1 mM
  Effect on VGSC current: 500 uM and 1 mM but not at higher
VGSC; concentrations higher than 1 mM, listed as glutamine
  Effect on VGSC current: No further enhancement
Kv1.2
  Effect on voltage gated K+ channel (Kv1.2) current: Inhibition of Voltage gated

## N[C@@H](CO)C(=O)O [L-Serin, L-serine]
VGSC
  Effects on VGSCs: Enhancement of VGSC
VGSC; 2.5 mM
  Effect on VGSC current: Enhances VGSC currentat 2.5 mM

## COc1ccc(OC(C)C(=O)O)cc1 (stereo not drawn) [Lactisole]
VGSC
  Effects on VGSCs: Inhibition of VGSCs
Nav1.5; 1-1.5 mM
  Effect on VGSC enhanced by Aβ25-35: inhibits the enhancing effect of Aβ25-35 on VGSC; also recorded: recovered to the size of VGSC recorded in the control

## C/C1=C/C(=O)O[C@@H]2C[C@@H](CC[C@H](C)/C=C\C=C\CC1)O[C@@](O)([C@@H]1CSC(=O)N1)C2 [Latrunculin A]
VGSC
  Effects on VGSCs: reduces VGSC
  Shift of steady-state inactivation (S-S) curve of VGSC: shifting the S-S curve toward hyperpolarization
VGSC; 12.6 μM
  Effect on VGSC current: shifted the VGSC current toward hyperpolarization and inhibited it
VGSC; 12.6 μM, listed as LatA
  Effect on VGSC current: significantly inhibits VGSC current

## CC(C)(Cc1ccc2ccccc2c1)NC[C@@H](O)COc1cccc(Cl)c1C#N [NPS-2143]
VGSC
  Effects on VGSCs: inhibited human VGSC; also recorded: Inhibition of VGSCs
VGSC; HEK Nav1.5 and SH-SY5Y
  Required concentration for VGSC inhibition: 5 µM
[3]
  Effect on VGSC in T1R3-silenced cells: no VGSC inhibitory effect was observed
Nav1.5; 5 μM
  Effect on VGSC current: Inhibitory effect; also recorded: slowly inhibited
Nav1.5; when VGSC inhibition nearly complete
  Effect on leak (baseline) current: non-selective leak currents

## OC[C@H]1O[C@@](CO)(O[C@H]2O[C@H](CO)[C@@H](O)[C@H](O)[C@H]2O)[C@@H](O)[C@@H]1O [Sucrose]
VGSC
  Effects on VGSCs: Inhibition of VGSCs

## Brc1c(Br)c(Br)c2[nH]nnc2c1Br [TBB, 4,5,6,7-tetrabromobenzotriazole]
VGSC
  Shift of steady-state inactivation (S-S) curve of VGSC: shifted to the hyperpolarizing direction even at control recordings.
Nav1.5
  Effect on VGSC current amplitude: reduced the amplitude of VGSC current
  Shift of steady-state inactivation (S-S) curve of VGSC: shifted gradually to the left; also recorded: significantly shifts in the hyperpolarizing direction
Nav1.5; 10 μM, prepulse −80 mV, test pulse −20 mV
  Suppression of VGSC current: almost completely suppressed
Nav1.5; 10 μM, prepulse −100 mV
  Suppression of VGSC current: about half suppressed
Nav1.5; 10 μM, prepulse −120 mV
  VGSC current unaffected: more than 80%
Nav1.5; minimum concentration (printed 30 μM), preceding pulse −80 mV
  VGSC current inhibition: nearly complete VGSC current inhibition
Nav1.5; prepulse −120 mV, at the used TBB concentration
  Suppression of VGSC current: about 50%
Nav1.5; read-out: IC50 from difference in Vh of steady-state inactivation curve (Hill equation)
  IC50: 12.9 µM
Nav1.5; read-out: IC50 of inhibition of VGSC current (INa, step −100 mV to −20 mV, Hill plot), prepulse −100 mV
  IC50: 15.8 µM

## CC(=O)O[C@H]1C(=O)[C@@]2(C)[C@H]([C@H](OC(=O)c3ccccc3)[C@]3(O)C[C@H](OC(=O)[C@H](O)[C@@H](NC(=O)c4ccccc4)c4ccccc4)C(C)=C1C3(C)C)[C@]1(OC(C)=O)CO[C@@H]1C[C@@H]2O [Taxol]
VGSC
  Effects on VGSCs: Enhances VGSC
Nav1.5; 0.4 μM to […]
  Effect on VGSC current: VGSC enhancement was observed
Nav1.5; 0.4 μM to […], listed as Paclitaxel (Taxol)
  Effect on VGSC current: enhances HEK Nav1.5 cell VGSC

## N[C@@H](CC(=O)O)C(=O)O [aspartic acid]
VGSC
  Effect on VGSC inactivation: delay VGSC inactivation

## CC(Oc1ccc(Cl)cc1Cl)C(=O)O (stereo not drawn) [dichlorprop, 2-(2,4-dichlorophenoxy) propanoic acid]
[1]; prepulse −80 mV
  IC50: 17.3 µM
[1]; prepulse/holding voltage −60 mV
  IC50: 9 µM
VGSC; dichlorprop>>clofibrate>lactisole
  Rank among sweet taste inhibitors in inhibiting Na+ channels: most effective inhibitor of sodium channels at the lowest concentration; also recorded: most potent
VGSC; listed as DichrolProp
  Effects on VGSCs: Inhibition of VGSCs
Nav1.5
  Effect on VGSC current amplitude: reduced the amplitude of VGSC current
Nav1.5; 500 μM
  Vh of steady-state inactivation curve: shifted to a more negative potential
Nav1.5; Control vs 300 and 500 μM, t-test
  Slope of steady-state inactivation curve: no significant difference
Nav1.5; in the presence of Taxol
  Effect on S-S curve of VGSC in the presence of Taxol: shifted the S-S curve of VGSC in the hyperpolarizing direction

## NCCCC[C@H](N)C(=O)O [lysine]
VGSC
  Effect on VGSC inactivation: delay VGSC inactivation
